Assay [1] addresses T1, IRAK4 (Homo sapiens, UniProt Q9NWZ3).
T1 sequence (Q9NWZ3 1-460): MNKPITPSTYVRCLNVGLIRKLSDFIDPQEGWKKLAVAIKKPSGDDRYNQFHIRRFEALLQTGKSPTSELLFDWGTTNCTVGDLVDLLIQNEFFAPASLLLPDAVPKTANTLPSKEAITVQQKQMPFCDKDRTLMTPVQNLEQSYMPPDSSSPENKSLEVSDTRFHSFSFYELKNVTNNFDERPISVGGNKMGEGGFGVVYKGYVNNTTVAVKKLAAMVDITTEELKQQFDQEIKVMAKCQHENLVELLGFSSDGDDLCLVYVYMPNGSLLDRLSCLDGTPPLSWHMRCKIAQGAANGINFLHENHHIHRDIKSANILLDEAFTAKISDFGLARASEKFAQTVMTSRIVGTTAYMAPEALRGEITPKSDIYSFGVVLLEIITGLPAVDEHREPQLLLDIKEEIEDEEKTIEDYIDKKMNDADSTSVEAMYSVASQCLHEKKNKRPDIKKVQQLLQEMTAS
Kind of assay: IRAK4 Inhibition Assay. Type of assay: biochemical. The note with it: ATP 500 μM; fluoresceinated peptide 1.5 μM; IRAK4 0.6 nM; 60 min room temperature; Caliper LABCHIP. As to the method: The assays were performed in U-bottom 384-well plates. The final assay volume was 30 μL prepared from 15 μL additions of enzyme and substrates (fluoresceinated peptide and ATP) and test compounds in assay buffer (20 mM HEPES pH 7.2, 10 mM MgCl2, 0.015% Brij 35 and 4 mM DTT). The reaction was initiated by the combination of IRAK4 with substrates and test compounds. The reaction mixture was incubated at room temperature for 60 min. and terminated by adding 45 μL of 35 mM EDTA to each sample. The reaction mixture was analyzed on the Caliper LABCHIP® 3000 (Caliper, Hopkinton, MA) by electrophoretic separation of the fluorescent substrate and phosphorylated product. Inhibition data were calculated by comparison to no enzyme control reactions for 100% inhibition and vehicle-only reactions for 0% inhibition. The final concentrations of reagents in the assays are ATP, 500 μM; FL-IPTSPITTTYFFFKKK peptide 1.5 μM; IRAK4, 0.6 nM; and DMSO, 1.6%.

Assay [2] concerns Human whole blood. Kind of assay: IRAK4 Whole Blood Assay. The note with it: stimulated with TLR2 agonist lipoteichoic acid 10 μg/mL for 5 hours, IL-6 levels. Type of assay: cell-based. As to the method:
Human whole blood containing the anti-coagulant ACD-A was plated in 384-well plate (25 μL/well) and incubated with compounds for 60 minutes at 37° C. in a 5% CO2 incubator. The blood was stimulated with a TLR2 agonist, 10 μg/mL final concentration of lipoteichoic acid (Invivogen, San Diego, CA) in 25 μL RPMI (Gibco) for 5 hours in a 5% CO2 incubator. At the end of the incubation, plates were centrifuged at 2300 rpm for 5 minutes. Supernatants were harvested and analyzed for IL-6 levels by Flow Cytometry beads assay (BD Biosciences, San Jose, CA).

pEC50, pIC50: −log10 of the molar value.

Regarding `CC(C)Nc1c(C(=O)NCc2ncn[nH]2)cnc2c1[nH]c1cc(C#N)ccc12` [Example 20, N-((1H-1,2,4-triazol-5-yl)methyl)-7-cyano-4-(isopropylamino)-5H-pyrido[3,2-b] indole carboxamide], the negative logarithm of the IC50 (pIC50) in assay [1] was 7.85. In addition, the negative-log EC50 (pEC50) in assay [2] is 5.98.
The corresponding values for `CC(O)CCNC(=O)c1cnc2c([nH]c3cc(C#N)ccc32)c1NC(C)C` (centres unmarked) [Example 25, 7-cyano-N-(3-hydroxybutyl)-4-(isopropylamino)-5H-pyrido[3,2-b]indole-3-carboxamide] are 8.46 and 5.82.
The corresponding values for `CC(C)(O)[C@H](F)CNC(=O)c1cnc2c([nH]c3cc(C#N)ccc32)c1NC1CC(F)(F)C1` [Example 3, (R)-7-cyano-4-((3,3-difluorocyclobutyl)amino)-N-(2-fluoro-3-hydroxy-3-methylbutyl)-5H-pyrido[3,2-b]indole-3-carboxamide] are 7.72 and 5.61.
Turning to `CC(C)(O)CCNC(=O)c1cnc2c([nH]c3cc(C#N)ccc32)c1NC1CC1` [Example 46, 7-cyano-4-(cyclopropylamino)-N-(3-hydroxy-3-methylbutyl)-5H-pyrido[3,2-b]indole-3-carboxamide], in assay [1], the pIC50 was 8.59. In assay [2], this compound gave a pEC50 of 6.13.
On to `CC(C)Nc1c(C(=O)N[C@H]2C[C@H](C(C)(C)O)C2)cnc2c1[nH]c1cc(C#N)ccc12` [Example 39, 7-cyano-N-((1R,3R)-3-(2-hydroxypropan-2-yl)cyclobutyl)-4-(isopropylamino)-5H-pyrido[3,2-b] indole-3-carboxamide], for which, in assay [1], the pIC50 was 8.41. Moreover, the pEC50 in assay [2] was below 4.70.
For `CC(C)Nc1c(C(=O)N[C@H]2CC[C@H](N)CC2)cnc2c1[nH]c1cc(C#N)ccc12` [Example 12, N-((1R,4R)-4-aminocyclohexyl)-7-cyano-4-(isopropylamino)-5H-pyrido[3,2-b]indole-3-carboxamide], in that order: 8.07 and 5.57.
For `CC(C)Nc1c(-c2cc(C3CCNCC3)no2)cnc2c1[nH]c1cc(C#N)ccc12` [Example 76, 4-(isopropylamino)-3-(3-(piperidin-4-yl)isoxazol-5-yl)-5H-pyrido[3,2-b]indole-7-carbonitrile], the pIC50 in assay [1] was 8.64. In addition, in assay [2], the pEC50 is 6.09.
For `CC(C)Nc1c(C(=O)NCc2cocn2)cnc2c1[nH]c1cc(C#N)ccc12` [Example 14, 7-cyano-4-(isopropylamino)-N-(oxazol-4-ylmethyl)-5H-pyrido[3,2-b]indole-3-carboxamide], in that order: 7.72 and 5.46.
The corresponding values for `CC(C)(O)[C@H](F)CNC(=O)c1cnc2c([nH]c3cc(C#N)ccc32)c1NC1COC1` [Example 22, (R)-7-cyano-N-(2-fluoro-3-hydroxy-3-methylbutyl)-4-(oxetanylamino)-5H-pyrido[3,2-b]indole-3-carboxamide] are 8.68 and 6.64.
For `CC(C)Nc1c(C(=O)NCCC(C)(C)NC(=O)C2CC2)cnc2c1[nH]c1cc(C#N)ccc12` [Example 59, 7-cyano-N-(3-(cyclopropanecarboxamido)-3-methylbutyl)-4-(isopropylamino)-5H-pyrido[3,2-b]indole-3-carboxamide], in that order: 8.27 and below 5.00.
In the case of `CC(C)Nc1c(-c2cc(C3CCCCN3)no2)cnc2c1[nH]c1cc(C#N)ccc12` (centres unmarked) [Example 80, 4-(isopropylamino)-3-(3-(piperidin-2-yl)isoxazol-5-yl)-5H-pyrido[3,2-b]indole-7-carbonitrile], the pIC50 in assay [1] was 7.74. For the same compound, the pEC50 in assay [2] was 5.48.
Consider `CC(C)(O)[C@H]1C[C@H](NC(=O)c2cnc3c([nH]c4cc(C#N)ccc43)c2NC2CC2)C1` [Example 44, 7-cyano-4-(cyclopropylamino)-N-((1R,3R)-3-(2-hydroxypropan-2-yl)cyclobutyl)-5H-pyrido[3,2-b]indole-3-carboxamide], for which, in assay [1], the pIC50 is 8.51. The pEC50 in assay [2] is 6.29.
The corresponding values for `CC(C)Nc1c(C(=O)NCc2nccs2)cnc2c1[nH]c1cc(C#N)ccc12` [Example 18, 7-cyano-4-(isopropylamino)-N-(thiazol-2-ylmethyl)-5H-pyrido[3,2-b]indole-3-carboxamide] are 7.77 and 5.09.
Turning to `CC(C)(O)[C@H](F)CNC(=O)c1cnc2c([nH]c3cc(C#N)ccc32)c1NC1CCC1` [Example 4, (R)-7-cyano-4-(cyclobutylamino)-N-(2-fluoro-3-hydroxy-3-methylbutyl)-5H-pyrido[3,2-b]indole-3-carboxamide], the pIC50 in assay [1] was 8.70. The pEC50 in assay [2] was 5.70.
For `CC(C)Nc1c(C(=O)NCCC(F)(F)F)cnc2c1[nH]c1cc(C#N)ccc12` [Example 27, 7-cyano-4-(isopropylamino)-N-(3,3,3-trifluoropropyl)-5H-pyrido[3,2-b]indole-3-carboxamide], in assay [1], the pIC50 is 7.89. In addition, in assay [2], the pEC50 is below 5.00.
On to `CC(C)Nc1c(C(=O)NC[C@@H](F)C(C)(C)O)cnc2c1[nH]c1cc(-c3cncs3)ccc12` [Example 66, (R)—N-(2-fluoro-3-hydroxy-3-methylbutyl)-4-(isopropylamino)-7-(thiazol-5-yl)-5H-pyrido[3,2-b]indole-3-carboxamide], for which the pIC50 in assay [1] was 8.07. Moreover, the pEC50 in assay [2] is 5.91.
The corresponding values for `CC(=O)NC(C)(C)CCNC(=O)c1cnc2c([nH]c3cc(C#N)ccc32)c1NC(C)C` [Example 60, N-(3-acetamido-3-methylbutyl)-7-cyano-4-(isopropylamino)-5H-pyrido[3,2-b]indole-3-carboxamide] are 8.42 and below 4.70.
For the compound `CC(C)Nc1c(C(=O)NC[C@@H](F)C(C)(C)O)cnc2c1[nH]c1cc(C#N)ccc12` [Example 1, (R)-7-cyano-N-(2-fluoro-3-hydroxy-3-methylbutyl)-4-(isopropylamino)-5H-pyrido [3,2-b]indole-3-carboxamide], the pIC50 in assay [1] is 8.70. In assay [2], this compound showed a pEC50 of 6.37.
For `CCNc1c(C(=O)NC[C@@H](F)C(C)(C)O)cnc2c1[nH]c1cc(C#N)ccc12` [Example 2, (R)-7-cyano-4-(ethylamino)-N-(2-fluoro-3-hydroxy-3-methylbutyl)-5H-pyrido[3,2-b]indole-3-carboxamide], in that order: 8.80 and 5.89.
The corresponding values for `COCCNC(=O)c1cnc2c([nH]c3cc(C#N)ccc32)c1NC(C)C` [Example 17, 7-cyano-4-(isopropylamino)-N-(2-methoxyethyl)-5H-pyrido[3,2-b]indole-3-carboxamide] are 7.89 and 5.33.
For `CC(C)Nc1c(-c2cn(CC3CC3)nn2)cnc2c1[nH]c1cc(C#N)ccc12` [Example 74, 3-(1-(cyclopropylmethyl)-1H-1,2,3-triazol-4-yl)-4-(isopropylamino)-5H-pyrido[3,2-b] indole-7-carbonitrile], in that order: 8.04 and below 5.00.
Consider `CC(C)Nc1c(-c2cc(C3CCOCC3)no2)cnc2c1[nH]c1cc(C#N)ccc12` [Example 77, 4-(isopropylamino)-3-(3-(tetrahydro-2H-pyran-4-yl)isoxazol-5-yl)-5H-pyrido[3,2-b]indole-7-carbonitrile], for which, in assay [1], the pIC50 was 7.96. In assay [2], this compound had a negative logarithm of the EC50 (pEC50) of 6.00.
The corresponding values for `CC(C)Nc1c(C(=O)NC2CCN(S(C)(=O)=O)CC2)cnc2c1[nH]c1cc(C#N)ccc12` [Example 63, 7-cyano-4-(isopropylamino)-N-(1-(methylsulfonyl)piperidin-4-yl)-5H-pyrido[3,2-b]indole-3-carboxamide] are 8.15 and below 4.70.
As for `CC(C)Nc1c(C(=O)NCCN2CCS(=O)(=O)CC2)cnc2c1[nH]c1cc(C#N)ccc12` [Example 62, 7-cyano-N-(2-(1,1-dioxidothiomorpholino)ethyl)-4-(isopropylamino)-5H-pyrido[3,2-b]indole-3-carboxamide], in assay [1], the pIC50 was 8.48. The same compound showed a pEC50 in assay [2] of 4.91.
The corresponding values for `CCNc1c(C(=O)NCCC2CCCN2)cnc2c1[nH]c1cc(C#N)ccc12` (centres unmarked) [Example 57, 7-cyano-4-(ethylamino)-N-(2-(pyrrolidin-2-yl)ethyl)-5H-pyrido[3,2-b]indole-3-carboxamide] are 7.74 and 6.21.

Usually pIC50 stands for −log10 of the IC50, conventionally taken in molar units. Broadly, the pEC50 is the negative decadic logarithm of the EC50, by convention in mol/L. High values mean a small EC50, low ones a large EC50.

The values above are taken from US12421230B2, “Tricyclic heteroaryl compounds useful as IRAK4 inhibitors” (BRISTOL-MYERS SQUIBB COMPANY, priority 2020, dated 2025).
